Measured values from paper PMC4721142, “Randomized controlled studies on the efficacy of antiarthritic agents in inhibiting cartilage degeneration and pain associated with progression of osteoarthritis in the rat” (Arthritis Research & Therapy, 2016).
Values joined by “and” are separate entries in the source; they are usually repeats but may differ in a detail not shown here. Equal entries are not always repeated.

Experiments:
[1] = test system: MMT/MCLT rat model of OA; assay: MMT/MCLT trial 2 histopathology (same doses); assay type: in vivo; set-up: key to Tibial cartilage degeneration score, 3-zone total: sum of three tibial zone scores (each on 5-point scale); key to Total joint score w/o femur / Total joint score: sum: cartilage degeneration scores + mean osteophyte score; settings: for Bone score / Depth ratio any matrix change, mean / Depth ratio any matrix change, zone 2 / Femoral cartilage degeneration score / Tibial cartilage degeneration score, 3-zone total / Tibial cartilage degeneration score, zone 1 / Tibial cartilage degeneration score, zone 2 / Tibial cartilage degeneration score, zone 3 / Tibial cartilage degeneration width, substantial (>50% thickness) / Tibial cartilage degeneration width, total / Tibial osteophyte measure / Tibial osteophyte score / Total joint score / Total joint score w/o femur: mean; for % decrease, bone score / % decrease, depth ratio mean / % decrease, femoral cartilage degeneration score / % decrease, osteophyte measure / % decrease, osteophyte score / % decrease, substantial degeneration width / % decrease, tibial score 3-zone total / % decrease, tibial score zone 1 / % decrease, tibial score zone 3 / % decrease, total degeneration width / % decrease, total joint score / % decrease, total joint score w/o femur / % decrease, depth ratio zone 2 / % decrease, tibial score zone 2: vs saline group
Text: For MMT/MCLT rat knee joints, sections were cut in 200-μm steps; stained with toluidine blue (also with a right and left half per section); and similarly analyzed for cartilage degeneration, proteoglycan loss, collagen damage, and osteophyte formation. Results were averaged across the three sections for an overall semiquantitative score. Regional differences across the tibial plateau were taken into consideration by dividing each section into three zones delineated using an ocular micrometer (outside, middle, and inside). Scores were based on the percentage of area affected within the zone.
Cartilage degeneration in the tibia was scored on a 5-point scale as detailed in the Methods section of Additional file 1. The total extent of degeneration of the tibial plateau was measured (in micrometers) and included an analysis of cell loss, proteoglycan loss, and collagen damage. Significant cartilage degeneration reflecting any degeneration extending through more than 50 % of the cartilage thickness was also measured. Collagen damage across the medial tibial plateau (the most severely affected section of the two halves) was also quantified.
Osteophytes and femoral cartilage degeneration were analyzed as detailed in Additional file 1. Scoring of the osteophytes and categorization into small, medium, and large was performed using an ocular micrometer. The actual osteophyte measurement (tidemark to farthest distance point extending toward the synovium) was also recorded. The femoral cartilage degeneration score and the three-zone sum of the tibial cartilage degeneration scores (mean of three levels) were summed to create a total cartilage degeneration score. The mean osteophyte score for each joint was added to this value to create a total joint score. […]
Histopathology MMT/MCLT Model

[2] = test system: MMT/MCLT rat model of OA; assay: MMT/MCLT trial 1 histopathology (same doses); assay type: in vivo; set-up: key to Tibial cartilage degeneration score, 3-zone total: sum of three tibial zone scores (each on 5-point scale); key to Total joint score w/o femur / Total joint score / Total joint score without femur: sum: cartilage degeneration scores + mean osteophyte score; settings: for Bone score / Depth ratio any matrix change, mean / Depth ratio any matrix change, zone 2 / Tibial cartilage degeneration score, 3-zone total / Tibial cartilage degeneration score, zone 1 / Tibial cartilage degeneration score, zone 2 / Tibial cartilage degeneration score, zone 3 / Tibial cartilage degeneration width, significant / Tibial cartilage degeneration width, total / Tibial osteophyte measure / Tibial osteophyte score / Total joint score w/o femur: mean; for % decrease, bone score / % decrease, depth ratio mean / % decrease, depth ratio zone 2 / % decrease, femoral cartilage degeneration score / % decrease, osteophyte measure / % decrease, osteophyte score / % decrease, significant degeneration width / % decrease, tibial score 3-zone total / % decrease, tibial score zone 1 / % decrease, tibial score zone 2 / % decrease, tibial score zone 3 / % decrease, total degeneration width / % decrease, total joint score / % decrease, total joint score w/o femur: vs saline group
How it was run: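 Rat knee joints were sectioned in 200-μm steps and stained with toluidine blue. Tibial cartilage degeneration was scored on a 5-point scale in three zones and summed with femoral scores, plus osteophyte scores, to give a total joint score. Results were averaged over three sections.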

[3] = test system: HeLa cells; assay: HeLa cell viability (CellTiter-Glo)
How it was run: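 HeLa cells with and without drug were tested for viability by CellTiter-Glo luminescence as a toxicity read-out. In the companion NF-κB reporter assay, cells co-transfected with NF-κB firefly and Renilla luciferase plasmids (8:1) were read by Dual-Glo 5 h later, normalized to viable cells and expressed as fold over unstimulated, untreated cells.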

[4] = tacrolimus 30 ng i.a., clonidine 100 μg/kg s.c.
[5] = i.a., tacrolimus 15 ng, curcumin 30 μg
[6] = tacrolimus 0.6 mg/kg, fluocinolone 10 μg/kg

SMILES: C=CC[C@@H]1/C=C(\C)C[C@H](C)C[C@H](OC)[C@H]2O[C@@](O)(C(=O)C(=O)N3CCCC[C@H]3C(=O)O[C@H](/C(C)=C/[C@@H]3CC[C@@H](O)[C@H](OC)C3)[C@H](C)[C@@H](O)CC1=O)[C@H](C)C[C@@H]2OC [Tacrolimus]
- Bone score ([1]; i.a., tacrolimus 15 ng): 2.60
- Depth ratio any matrix change, mean ([1]; i.a., tacrolimus 15 ng): 0.25
- Depth ratio any matrix change, zone 2 ([1]; i.a., tacrolimus 15 ng): 0.06
- Femoral cartilage degeneration score ([1]; i.a., tacrolimus 15 ng): 0.87 and 0.87 ± 0.36
- Tibial cartilage degeneration score, 3-zone total ([1]; i.a., tacrolimus 15 ng): 4.43
- Tibial cartilage degeneration score, zone 1 ([1]; i.a., tacrolimus 15 ng): 3.37
- Tibial cartilage degeneration score, zone 2 ([1]; i.a., tacrolimus 15 ng): 1.07
- Tibial cartilage degeneration score, zone 3 ([1]; i.a., tacrolimus 15 ng): 0.00
- Tibial cartilage degeneration width, substantial (>50% thickness) ([1]; i.a., tacrolimus 15 ng): 536.67 µm
- Tibial cartilage degeneration width, total ([1]; i.a., tacrolimus 15 ng): 1060.00 µm
- Tibial osteophyte measure ([1]; i.a., tacrolimus 15 ng): 446.67 µm
- Tibial osteophyte score ([1]; i.a., tacrolimus 15 ng): 3.30
- Total joint score ([1]; i.a., tacrolimus 15 ng): 8.60 and 8.60 ± 0.63
- Total joint score w/o femur ([1]; i.a., tacrolimus 15 ng): 7.73
- Bone score [1, 4]: 2.60
- Depth ratio any matrix change, mean [1, 4]: 0.28
- Depth ratio any matrix change, zone 2 [1, 4]: 0.08
- Femoral cartilage degeneration score [1, 4]: 0.80 and 0.8 ± 0.19
- Tibial cartilage degeneration score, 3-zone total [1, 4]: 4.73
- Tibial cartilage degeneration score, zone 1 [1, 4]: 3.50
- Tibial cartilage degeneration score, zone 2 [1, 4]: 1.20
- Tibial cartilage degeneration score, zone 3 [1, 4]: 0.03
- Tibial cartilage degeneration width, substantial (>50% thickness) [1, 4]: 576.67 µm
- Tibial cartilage degeneration width, total [1, 4]: 1090.00 µm
- Tibial osteophyte measure [1, 4]: 457.33 µm
- Tibial osteophyte score [1, 4]: 3.37
- Total joint score [1, 4]: 8.90 and 8.90 ± 0.66
- Total joint score w/o femur [1, 4]: 8.10
- % decrease, width of severe collagen degeneration ([1]; tacrolimus 15 ng i.a.): 86%
- % decrease, width of severe collagen degeneration ([1]; tacrolimus 30 ng i.a.): 87%
- % decrease, bone score ([1]; i.a., tacrolimus 15 ng): 19%
- % decrease, depth ratio mean ([1]; i.a., tacrolimus 15 ng): 23%
- % decrease, femoral cartilage degeneration score ([1]; i.a., tacrolimus 15 ng): 19%
- % decrease, osteophyte measure ([1]; i.a., tacrolimus 15 ng): 5%
- % decrease, osteophyte score ([1]; i.a., tacrolimus 15 ng): 7%
- % decrease, substantial degeneration width ([1]; i.a., tacrolimus 15 ng): 17%
- % decrease, tibial score 3-zone total ([1]; i.a., tacrolimus 15 ng): 21%
- % decrease, tibial score zone 1 ([1]; i.a., tacrolimus 15 ng): 10%
- % decrease, tibial score zone 3 ([1]; i.a., tacrolimus 15 ng): 100%
- % decrease, total degeneration width ([1]; i.a., tacrolimus 15 ng): 12%
- % decrease, total joint score ([1]; i.a., tacrolimus 15 ng): 16%
- % decrease, total joint score w/o femur ([1]; i.a., tacrolimus 15 ng): 16%
- % decrease, depth ratio zone 2 [1, 5]: 59%
- % decrease, tibial score zone 2 [1, 5]: 42%
- % decrease, bone score ([1]; tacrolimus 30 ng i.a.): 19%
- % decrease, depth ratio mean ([1]; tacrolimus 30 ng i.a.): 15%
- % decrease, depth ratio zone 2 ([1]; tacrolimus 30 ng i.a.): 50%
- % decrease, femoral cartilage degeneration score ([1]; tacrolimus 30 ng i.a.): 25%
- % decrease, osteophyte measure ([1]; tacrolimus 30 ng i.a.): 3%
- % decrease, osteophyte score ([1]; tacrolimus 30 ng i.a.): 6%
- % decrease, substantial degeneration width ([1]; tacrolimus 30 ng i.a.): 11%
- % decrease, tibial score 3-zone total ([1]; tacrolimus 30 ng i.a.): 15%
- % decrease, tibial score zone 1 ([1]; tacrolimus 30 ng i.a.): 6%
- % decrease, tibial score zone 2 ([1]; tacrolimus 30 ng i.a.): 35%
- % decrease, tibial score zone 3 ([1]; tacrolimus 30 ng i.a.): 0%
- % decrease, total degeneration width ([1]; tacrolimus 30 ng i.a.): 10%
- % decrease, total joint score ([1]; tacrolimus 30 ng i.a.): 13%
- % decrease, total joint score w/o femur ([1]; tacrolimus 30 ng i.a.): 12%
- Bone score ([2]; low or only dose): 2.63
- Depth ratio any matrix change, mean ([2]; low or only dose): 0.26
- Depth ratio any matrix change, zone 2 ([2]; low or only dose): 0.07
- Tibial cartilage degeneration score, 3-zone total ([2]; low or only dose): 4.25
- Tibial cartilage degeneration score, zone 1 ([2]; low or only dose): 2.75
- Tibial cartilage degeneration score, zone 2 ([2]; low or only dose): 1.50
- Tibial cartilage degeneration score, zone 3 ([2]; low or only dose): 0.00
- Tibial cartilage degeneration width, significant ([2]; low or only dose): 441.67 µm
- Tibial cartilage degeneration width, total ([2]; low or only dose): 1137.50 µm
- Tibial osteophyte measure ([2]; low or only dose): 370.83 µm
- Tibial osteophyte score ([2]; low or only dose): 2.38
- Total joint score w/o femur ([2]; low or only dose): 6.63
- Bone score [2, 6]: 3.00
- Depth ratio any matrix change, mean [2, 6]: 0.22
- Depth ratio any matrix change, zone 2 [2, 6]: 0.02
- Tibial cartilage degeneration score, 3-zone total [2, 6]: 3.63
- Tibial cartilage degeneration score, zone 1 [2, 6]: 2.42
- Tibial cartilage degeneration score, zone 2 [2, 6]: 1.21
- Tibial cartilage degeneration score, zone 3 [2, 6]: 0.00
- Tibial cartilage degeneration width, significant [2, 6]: 325.00 μm
- Tibial cartilage degeneration width, total [2, 6]: 945.83 μm
- Tibial osteophyte measure [2, 6]: 370.00 μm
- Tibial osteophyte score [2, 6]: 2.38
- Total joint score w/o femur [2, 6]: 6.00
- % decrease, combined width severe+marked ([2]; tacrolimus 0.3 mg/kg): 86%
- % decrease, combined width severe+marked+moderate ([2]; tacrolimus 0.3 mg/kg): 88%
- % decrease, combined width severe+marked+moderate+mild ([2]; tacrolimus 0.3 mg/kg): 33%
- % decrease, width of moderate collagen degeneration ([2]; tacrolimus 0.3 mg/kg): 91%
- % decrease, width of severe collagen degeneration ([2]; tacrolimus 0.3 mg/kg): 97%
- % increase, area of any cartilage matrix ([2]; tacrolimus 0.3 mg/kg): 59%
- % increase, area of viable cartilage matrix ([2]; tacrolimus 0.3 mg/kg, fluocinolone 5 ug/kg): 26%
- % decrease, combined width severe+marked ([2]; tacrolimus 0.6 mg/kg): 99%
- % decrease, combined width severe+marked+moderate ([2]; tacrolimus 0.6 mg/kg): 96%
- % decrease, combined width severe+marked+moderate+mild ([2]; tacrolimus 0.6 mg/kg): 53%
- % decrease, width of marked collagen degeneration ([2]; tacrolimus 0.6 mg/kg): 97%
- % decrease, width of severe collagen degeneration ([2]; tacrolimus 0.6 mg/kg): 100%
- % decrease, width of total collagen degeneration ([2]; tacrolimus 0.6 mg/kg): 19%
- % increase, area of any cartilage matrix ([2]; tacrolimus 0.6 mg/kg): 69%
- % increase, width of normal collagen ([2]; tacrolimus 0.6 mg/kg): 19%
- % increase, area of viable cartilage matrix ([2]; tacrolimus 0.6 mg/kg, fluocinolone 10 ug/kg): 33%
- % decrease, bone score ([2]; low or only dose): 19%
- % decrease, depth ratio mean ([2]; low or only dose): 29%
- % decrease, depth ratio zone 2 ([2]; low or only dose): 59%
- % decrease, femoral cartilage degeneration score ([2]; low or only dose): 73%
- % decrease, osteophyte measure ([2]; low or only dose): 28%
- % decrease, osteophyte score ([2]; low or only dose): 39%
- % decrease, significant degeneration width ([2]; low or only dose): 39%
- % decrease, tibial score 3-zone total ([2]; low or only dose): 35%
- % decrease, tibial score zone 1 ([2]; low or only dose): 36%
- % decrease, tibial score zone 2 ([2]; low or only dose): 32%
- % decrease, tibial score zone 3 ([2]; low or only dose): 100%
- % decrease, total degeneration width ([2]; low or only dose): 13%
- % decrease, total joint score ([2]; low or only dose): 42%
- % decrease, total joint score w/o femur ([2]; low or only dose): 37%
- % decrease, bone score [2, 6]: 8%
- % decrease, depth ratio mean [2, 6]: 40%
- % decrease, depth ratio zone 2 [2, 6]: 87%
- % decrease, femoral cartilage degeneration score [2, 6]: 48%
- % decrease, osteophyte measure [2, 6]: 28%
- % decrease, osteophyte score [2, 6]: 39%
- % decrease, significant degeneration width [2, 6]: 55%
- % decrease, tibial score 3-zone total [2, 6]: 45%
- % decrease, tibial score zone 1 [2, 6]: 44%
- % decrease, tibial score zone 2 [2, 6]: 45%
- % decrease, tibial score zone 3 [2, 6]: 100%
- % decrease, total degeneration width [2, 6]: 28%
- % decrease, total joint score [2, 6]: 43%
- % decrease, total joint score w/o femur [2, 6]: 43%
- Non-toxic concentrations [3]: 0 to 49.6 M
